# Test results taken from patent US20250382556A1, “MODULATION OF THE BRANCHED-CHAIN METABOLITE CONTENT OF FRUITS AND VEGETABLES” (BOARD OF TRUSTEES OF MICHIGAN STATE UNIVERSITY, priority 2024, published 2025).
# How the values were obtained:
# [1] = system: apple fruit peel; assay: Complementation of inhibitor-treated apple peel with branched-chain precursors; set-up: species or system Malus x domestica Borkh.
# Procedure: α-Ketoacids (2-oxo acids) were fed to ‘Empire’ and ‘Jonagold’ fruit by preparing vials of excised peel tissue discs in 22-mL glass vials using 20 μL of treatment solution on the prepared paper-peel disc units. Treatment solution contained 20 mM methanol, 0.1% Tween 20, 20 mM of α-keto-β-methylvalerate (3-methyl-2-oxopentanoate), α-ketoisovalerate (3-methyl-2-oxobutanoate), or α-ketoisocaproate (4-methyl-2-oxopentanoate), and when appropriate, 1 mM rimsulfuron.
# ‘Red Delicious’ apple fruit held in refrigerated air for 5 months (see above) plus 1 day at 22° C. and at an advanced ripeness stage (‘ripe’) were treated with rimsulfuron (1 mM) with 0.2% Tween 20 on day 0 of the study and for the next three consecutive days as above described. The fruit were evaluated daily for volatile emissions (see below) for eight days. On days 0, 2, 4, and 7, representative treated and untreated fruit were selected for tissue collection for metabolite analysis (see below). On day 7, samples of fruit peel were fed, as described above, with water or 20 mM isoleucine or α-keto-β-methylvalerate.
# Headspace volatiles from small tissue samples incubated in 22 mL vials were adsorbed for 30 s using a solid-phase micro extraction (SPME) fiber (65 μm PDMS-DVB; Supelco Analytical). […]
# [2] = system: apple peel tissues; assay: Labeled (1,2-13C2) acetate and methanol feeding of excised apple peel; set-up: species or system Malus x domestica Borkh.; settings: for reduction of methyl 2-methylbutanoate content: 1 mM rimsulfuron
# Procedure: Acetate feedings were likewise performed with excised peel tissues in 22-mL glass vials and 20 μL of treatment solution. ‘Gala’ fruit were fed with 10 mM methanol, 10 mM acetate (unlabeled or 1,2-^13C2) pH 7 balanced with KOH, 0.05% Tween 20, and 0.5 mM rimsulfuron if appropriate. These concentrations were doubled for ‘Empire’ and ‘Jonagold’ fruit.
# Headspace volatiles from small tissue samples incubated in 22 mL vials were adsorbed for 30 s using a solid-phase micro extraction (SPME) fiber (65 μm PDMS-DVB; Supelco Analytical). The SPME fiber was then directly desorbed for 1 min in the injection port of a gas chromatograph (GC; HP-6890, Hewlett-Packard) coupled to a time-of-flight mass spectrometer (MS; Pegasus II, LECO). Whole fruits and banana slices were incubated for 20 min at room temperature (22° C.) in 1-L sealed Teflon jars before a 15-s, or 3-min adsorption and 1- or 2-min desorption. Adsorption times were adjusted to ensure instrument responses were in the linear range. All desorbed volatiles were cryofocused at the beginning of the column by immersing said region of the column in liquid nitrogen. After the desorption period, the run was initiated and the liquid nitrogen removed.
# The conditions of the system were as follows. Injection port: 200° C., splitless, ultra-purified helium (99.999%) carrier gas, front inlet flow 1.5 mL·min^−1 constant, 10 mL·min^−1 purge flow, 11.5 mL·min^−1 total flow. Oven: initial temperature 40° C. for 0 min, ramped by 43° C.·min^−1 to 185° C. for 0 min. Column: HP-5 MS, 30 m×0.25 mm i.d., 0.25 μm film thickness (Agilent). Transfer line temperature 225° C. MS: Electron ionization (−70 eV), ion source temperature 200° C., solvent delay 50 sec, m/z range 29 to 400, detector voltage 1500 V, data collection rate 20 Hz.
smiles,measurement,setting,value
"CCS(=O)(=O)c1cccnc1S(=O)(=O)NC(=O)Nc1nc(OC)cc(OC)n1 [rimsulfuron, N-((4,6-dimethoxypyrimidin-2-yl)aminocarbonyl)-3-(ethylsulfonyl)-2-pyridinesulfonamide]",ester production after feeding isoleucine or α-keto-β-methylvalerate to inhibitor-treated peels,"[1]; ripe Red Delicious, 20 mM precursor on day 7",recovery of anteiso-branched-chain esters
same,2-methylbutyl and 2-methylbutanoate esters after exogenous feeding of α-keto-β-methylvalerate to inhibitor-treated fruit,"[1]; ripening Jonagold and Empire, 20 mM α-ketoacid",at least a partial rescue
same,M+1 and M+2 methyl pentanoate isotopologs collectively more enriched after treatment,"[2]; Empire and Jonagold, on average, 1,2-13C2 acetate",4.28 fold
same,reduction of methyl 2-methylbutanoate content,[2]; Empire peel fed methanol and acetate,99.4%
same,reduction of methyl 2-methylbutanoate content,[2]; Jonagold peel fed methanol and acetate,100%
same,enrichment of M+1 isotopolog of methyl hexanoate,"[2]; Jonagold, 1,2-13C2 acetate",slightly more enrichment than controls
